Experimental data published in the NIST ThermoML archive (doi:10.1016/j.fluid.2008.03.004).
± gives the expanded uncertainty stated by the source.

Assay: xn = mol fraction of the nth substance listed
Conditions: 101 kPa, Liquid; for speed of sound: Sing-around technique in a fixed-path interferometer

Cc1ccccc1C [1,2-dimethylbenzene] + COC(C)(C)C
Conditions | mass density [kg/m3] | speed of sound [m/s]
288.15 K, x2 = 0 | 883.36 ± 0.35 | 1381.3 ± 2.2
288.15 K, x2 = 0.052 | 876.722 ± 0.38 | 1374.2 ± 2.2
288.15 K, x2 = 0.101 | 870.811 ± 0.39 | 1361.2 ± 2.2
288.15 K, x2 = 0.203 | 857.652 ± 0.41 | 1332.7 ± 2.2
288.15 K, x2 = 0.303 | 844.603 ± 0.42 | 1302.7 ± 2.2
288.15 K, x2 = 0.401 | 831.766 ± 0.44 | 1274.2 ± 2.2
288.15 K, x2 = 0.499 | 818.201 ± 0.46 | 1243.3 ± 2.2
288.15 K, x2 = 0.604 | 803.537 ± 0.49 | 1212.8 ± 2.2
288.15 K, x2 = 0.707 | 788.841 ± 0.51 | 1179 ± 2.2
288.15 K, x2 = 0.8 | 775.294 ± 0.53 | 1148.4 ± 2.2
288.15 K, x2 = 0.9 | 760.339 ± 0.55 | 1119.5 ± 2.2
288.15 K, x2 = 0.95 | 752.593 ± 0.56 | 1099.1 ± 2.2
290.65 K, x2 = 0 | 881.265 ± 0.35 | 1371.8 ± 2.2
290.65 K, x2 = 0.052 | 874.606 ± 0.38 | 1364.9 ± 2.2
290.65 K, x2 = 0.101 | 868.675 ± 0.39 | 1350.7 ± 2.2
290.65 K, x2 = 0.203 | 855.478 ± 0.41 | 1322.1 ± 2.2
290.65 K, x2 = 0.303 | 842.386 ± 0.43 | 1292 ± 2.2
290.65 K, x2 = 0.401 | 829.505 ± 0.45 | 1263.3 ± 2.2
290.65 K, x2 = 0.499 | 815.897 ± 0.47 | 1232.4 ± 2.2
290.65 K, x2 = 0.604 | 801.177 ± 0.49 | 1201.5 ± 2.2
290.65 K, x2 = 0.707 | 786.421 ± 0.51 | 1167.7 ± 2.2
290.65 K, x2 = 0.8 | 772.825 ± 0.53 | 1136.8 ± 2.2
290.65 K, x2 = 0.9 | 757.801 ± 0.55 | 1107.9 ± 2.2
290.65 K, x2 = 0.95 | 750.025 ± 0.57 | 1087.4 ± 2.2
293.15 K, x2 = 0 | 879.168 ± 0.35 | 1362.2 ± 2.2
293.15 K, x2 = 0.052 | 872.486 ± 0.38 | 1354.8 ± 2.2
293.15 K, x2 = 0.101 | 866.535 ± 0.39 | 1340.3 ± 2.2
293.15 K, x2 = 0.203 | 853.3 ± 0.41 | 1311.6 ± 2.2
293.15 K, x2 = 0.303 | 840.168 ± 0.43 | 1281.4 ± 2.2
293.15 K, x2 = 0.401 | 827.242 ± 0.45 | 1252.5 ± 2.2
293.15 K, x2 = 0.499 | 813.586 ± 0.47 | 1221.6 ± 2.2
293.15 K, x2 = 0.604 | 798.814 ± 0.49 | 1190.3 ± 2.2
293.15 K, x2 = 0.707 | 783.998 ± 0.52 | 1156.6 ± 2.2
293.15 K, x2 = 0.8 | 770.35 ± 0.54 | 1125.5 ± 2.2
293.15 K, x2 = 0.9 | 755.264 ± 0.56 | 1096.5 ± 2.2
293.15 K, x2 = 0.95 | 747.451 ± 0.57 | 1075.9 ± 2.2
295.65 K, x2 = 0 | 877.069 ± 0.36 | 1351.8 ± 2.2
295.65 K, x2 = 0.052 | 870.364 ± 0.39 | 1344.5 ± 2.2
295.65 K, x2 = 0.101 | 864.394 ± 0.4 | 1329.8 ± 2.2
295.65 K, x2 = 0.203 | 851.12 ± 0.41 | 1301.1 ± 2.2
295.65 K, x2 = 0.303 | 837.944 ± 0.43 | 1270.7 ± 2.2
295.65 K, x2 = 0.401 | 824.973 ± 0.45 | 1241.8 ± 2.2
295.65 K, x2 = 0.499 | 811.273 ± 0.47 | 1210.7 ± 2.2
295.65 K, x2 = 0.604 | 796.444 ± 0.5 | 1179.3 ± 2.2
295.65 K, x2 = 0.707 | 781.567 ± 0.52 | 1145.4 ± 2.2
295.65 K, x2 = 0.8 | 767.869 ± 0.54 | 1114.1 ± 2.2
295.65 K, x2 = 0.9 | 752.717 ± 0.56 | 1085.1 ± 2.2
295.65 K, x2 = 0.95 | 744.871 ± 0.57 | 1064.4 ± 2.2
298.15 K, x2 = 0 | 874.968 ± 0.36 | 1341.5 ± 2.2
298.15 K, x2 = 0.052 | 868.242 ± 0.39 | 1334.2 ± 2.2
298.15 K, x2 = 0.101 | 862.253 ± 0.4 | 1319.6 ± 2.2
298.15 K, x2 = 0.203 | 848.937 ± 0.42 | 1290.6 ± 2.2
298.15 K, x2 = 0.303 | 835.714 ± 0.44 | 1260.1 ± 2.2
298.15 K, x2 = 0.401 | 822.702 ± 0.46 | 1231.1 ± 2.2
298.15 K, x2 = 0.499 | 808.953 ± 0.48 | 1199.9 ± 2.2
298.15 K, x2 = 0.604 | 794.069 ± 0.5 | 1168.2 ± 2.2
298.15 K, x2 = 0.707 | 779.131 ± 0.52 | 1134.3 ± 2.2
298.15 K, x2 = 0.8 | 765.379 ± 0.54 | 1102.7 ± 2.2
298.15 K, x2 = 0.9 | 750.16 ± 0.57 | 1073.7 ± 2.2
298.15 K, x2 = 0.95 | 742.284 ± 0.58 | 1052.9 ± 2.2
300.65 K, x2 = 0 | 872.865 ± 0.36 | 1331.2 ± 2.2
300.65 K, x2 = 0.052 | 866.116 ± 0.39 | 1323.9 ± 2.2
300.65 K, x2 = 0.101 | 860.108 ± 0.4 | 1309.4 ± 2.2
300.65 K, x2 = 0.203 | 846.749 ± 0.42 | 1280.2 ± 2.2
300.65 K, x2 = 0.303 | 833.484 ± 0.44 | 1249.6 ± 2.2
300.65 K, x2 = 0.401 | 820.426 ± 0.46 | 1220.3 ± 2.2
300.65 K, x2 = 0.499 | 806.626 ± 0.48 | 1189.1 ± 2.2
300.65 K, x2 = 0.604 | 791.685 ± 0.5 | 1157.2 ± 2.2
300.65 K, x2 = 0.707 | 776.688 ± 0.53 | 1123.2 ± 2.2
300.65 K, x2 = 0.8 | 762.882 ± 0.55 | 1091.4 ± 2.2
300.65 K, x2 = 0.9 | 747.591 ± 0.57 | 1062.2 ± 2.2
300.65 K, x2 = 0.95 | 739.686 ± 0.58 | 1041.5 ± 2.2
303.15 K, x2 = 0 | 870.759 ± 0.36 | 1321 ± 2.2
303.15 K, x2 = 0.052 | 863.985 ± 0.4 | 1313.7 ± 2.2
303.15 K, x2 = 0.101 | 857.959 ± 0.41 | 1299.2 ± 2.2
303.15 K, x2 = 0.203 | 844.558 ± 0.42 | 1269.8 ± 2.2
303.15 K, x2 = 0.303 | 831.25 ± 0.44 | 1239.1 ± 2.2
303.15 K, x2 = 0.401 | 818.144 ± 0.46 | 1209.7 ± 2.2
303.15 K, x2 = 0.499 | 804.296 ± 0.48 | 1178.4 ± 2.2
303.15 K, x2 = 0.604 | 789.298 ± 0.51 | 1146.3 ± 2.2
303.15 K, x2 = 0.707 | 774.237 ± 0.53 | 1112.1 ± 2.2
303.15 K, x2 = 0.8 | 760.378 ± 0.55 | 1080.2 ± 2.2
303.15 K, x2 = 0.9 | 745.002 ± 0.57 | 1050.7 ± 2.2
303.15 K, x2 = 0.95 | 737.076 ± 0.59 | 1030 ± 2.2
305.65 K, x2 = 0 | – | 1310.8 ± 2.2
305.65 K, x2 = 0.052 | – | 1303.6 ± 2.2
305.65 K, x2 = 0.101 | – | 1289 ± 2.2
305.65 K, x2 = 0.203 | – | 1259.5 ± 2.2
305.65 K, x2 = 0.303 | – | 1228.6 ± 2.2
305.65 K, x2 = 0.401 | – | 1199 ± 2.2
305.65 K, x2 = 0.499 | – | 1167.7 ± 2.2
305.65 K, x2 = 0.604 | – | 1135.3 ± 2.2
305.65 K, x2 = 0.707 | – | 1101 ± 2.2
305.65 K, x2 = 0.8 | – | 1069 ± 2.2
305.65 K, x2 = 0.9 | – | 1038.7 ± 2.2
305.65 K, x2 = 0.95 | – | 1018.6 ± 2.2
